Experimental data taken from PubChem BioAssay (NCI).
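Five compound concentrations were applied to cells in 96-well plates for 48 hours; endpoints were derived by simple linear interpolation of the resulting dose-response curve. GI50 = concentration required for 50% inhibition of growth. At the TGI there is no net growth.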

What was measured:
Test in all cases: NCI tumour cell line growth inhibition, 48 h
NCI-H460 lung = test system: NCI-H460 lung
SF-295 CNS = test system: SF-295 CNS
SNB-19 CNS = test system: SNB-19 CNS
HOP-92 NSCLC = test system: HOP-92 NSCLC
UACC-257 melanoma = test system: UACC-257 melanoma
SN12C renal = test system: SN12C renal
SR leukemia = test system: SR leukemia
IGROV1 ovarian = test system: IGROV1 ovarian
HCC-2998 colon = test system: HCC-2998 colon
U251 CNS = test system: U251 CNS
SF-268 CNS = test system: SF-268 CNS
A498 renal = test system: A498 renal
UO-31 renal = test system: UO-31 renal
COLO 205 colon = test system: COLO 205 colon
OVCAR-4 ovarian = test system: OVCAR-4 ovarian
RPMI-8226 leukemia = test system: RPMI-8226 leukemia
KM12 colon = test system: KM12 colon
NCI/ADR-RES ovarian = test system: NCI/ADR-RES ovarian
BT-549 breast = test system: BT-549 breast
NCI-H522 lung = test system: NCI-H522 lung
MDA-MB-231 breast = test system: MDA-MB-231 breast
T-47D breast = test system: T-47D breast
CCRF-CEM leukemia = test system: CCRF-CEM leukemia
TK-10 renal = test system: TK-10 renal
HT29 colon = test system: HT29 colon
CAKI-1 renal = test system: CAKI-1 renal
HS 578T breast = test system: HS 578T breast
SK-MEL-28 melanoma = test system: SK-MEL-28 melanoma
PC-3 prostate = test system: PC-3 prostate
A549 NSCLC = test system: A549 NSCLC
SW-620 colon = test system: SW-620 colon
HCT-15 colon = test system: HCT-15 colon
K-562 leukemia = test system: K-562 leukemia
NCI-H23 lung = test system: NCI-H23 lung
SNB-75 CNS = test system: SNB-75 CNS
UACC-62 melanoma = test system: UACC-62 melanoma
OVCAR-5 ovarian = test system: OVCAR-5 ovarian
SK-OV-3 ovarian = test system: SK-OV-3 ovarian
HOP-62 NSCLC = test system: HOP-62 NSCLC
HL-60(TB) leukemia = test system: HL-60(TB) leukemia
RXF 393 renal = test system: RXF 393 renal
DU-145 prostate = test system: DU-145 prostate
MCF7 breast = test system: MCF7 breast
LOX IMVI melanoma = test system: LOX IMVI melanoma
MDA-MB-435 = test system: MDA-MB-435
NCI-H226 lung = test system: NCI-H226 lung
OVCAR-3 ovarian = test system: OVCAR-3 ovarian
SF-539 CNS = test system: SF-539 CNS
MALME-3M melanoma = test system: MALME-3M melanoma
SK-MEL-2 melanoma = test system: SK-MEL-2 melanoma
OVCAR-8 ovarian = test system: OVCAR-8 ovarian
EKVX NSCLC = test system: EKVX NSCLC
MOLT-4 leukemia = test system: MOLT-4 leukemia
SK-MEL-5 melanoma = test system: SK-MEL-5 melanoma
MDA-MB-468 breast = test system: MDA-MB-468 breast
M14 melanoma = test system: M14 melanoma
786-0 renal = test system: 786-0 renal
ACHN renal = test system: ACHN renal
HCT-116 colon = test system: HCT-116 colon

## COc1ccc2[nH]c(O)c(N=NC(=O)COc3ccc(NC(=O)Nc4ccc(Cl)cc4)cc3)c2c1
NCI-H460 lung
  GI50: 1.84 µM
  TGI: 3.97 µM
SF-295 CNS
  GI50: 6.63 µM
  TGI: 20.1 µM
SNB-19 CNS
  GI50: 3 µM
  TGI: 10.9 µM
HOP-92 NSCLC
  GI50: 2.43 µM
  TGI: 7.31 µM
UACC-257 melanoma
  GI50: 13.1 µM
  TGI: 28.2 µM
SN12C renal
  GI50: 3.03 µM
  TGI: 11.4 µM
SR leukemia
  GI50: 4.15 µM
  TGI: > 100 µM
IGROV1 ovarian
  GI50: 8.74 µM
  TGI: 21.6 µM
HCC-2998 colon
  GI50: 5.33 µM
  TGI: 25.9 µM
U251 CNS
  GI50: 4.16 µM
  TGI: 14.5 µM
SF-268 CNS
  GI50: 3.3 µM
  TGI: 10.4 µM
A498 renal
  GI50: 17.1 µM
  TGI: 31.8 µM
UO-31 renal
  GI50: > 100 µM
  TGI: > 100 µM
COLO 205 colon
  GI50: 3.63 µM
  TGI: 13.2 µM
OVCAR-4 ovarian
  GI50: 2.94 µM
  TGI: 11 µM
RPMI-8226 leukemia
  GI50: 6.58 µM
  TGI: 68.8 µM
KM12 colon
  GI50: 3.21 µM
  TGI: 13.4 µM
NCI/ADR-RES ovarian
  GI50: > 100 µM
  TGI: > 100 µM
BT-549 breast
  GI50: 12.1 µM
  TGI: 26.6 µM
NCI-H522 lung
  GI50: 2.23 µM
  TGI: 5.85 µM
MDA-MB-231 breast
  GI50: 1.8 µM
  TGI: 3.75 µM
T-47D breast
  GI50: 9.57 µM
  TGI: 23.9 µM
CCRF-CEM leukemia
  GI50: 5.39 µM
  TGI: 26.3 µM
TK-10 renal
  GI50: 20.8 µM
  TGI: 48.3 µM
HT29 colon
  GI50: 3.22 µM
  TGI: 14 µM
CAKI-1 renal
  GI50: 16.6 µM
  TGI: 33.7 µM
HS 578T breast
  GI50: 2.8 µM
  TGI: 13.4 µM
SK-MEL-28 melanoma
  GI50: 1.81 µM
  TGI: 3.56 µM
PC-3 prostate
  GI50: 3.39 µM
  TGI: 14.9 µM
A549 NSCLC
  GI50: 8.39 µM
  TGI: 44.4 µM
SW-620 colon
  GI50: 2.61 µM
  TGI: 13.2 µM
HCT-15 colon
  GI50: > 100 µM
  TGI: > 100 µM
K-562 leukemia
  GI50: 5.36 µM
  TGI: > 100 µM
NCI-H23 lung
  GI50: 2.68 µM
  TGI: 8.54 µM
SNB-75 CNS
  GI50: 8.94 µM
  TGI: 27.7 µM
UACC-62 melanoma
  GI50: 2.23 µM
  TGI: 5.8 µM
OVCAR-5 ovarian
  GI50: 6.34 µM
  TGI: 20 µM
SK-OV-3 ovarian
  GI50: 12.7 µM
  TGI: 27.6 µM
HOP-62 NSCLC
  GI50: 2.54 µM
  TGI: 6.4 µM
HL-60(TB) leukemia
  GI50: 23.6 µM
  TGI: > 100 µM
RXF 393 renal
  GI50: 6.26 µM
  TGI: 22.2 µM
DU-145 prostate
  GI50: 4.14 µM
  TGI: 20.7 µM
MCF7 breast
  GI50: 2.88 µM
  TGI: 10.2 µM
LOX IMVI melanoma
  GI50: 1.87 µM
  TGI: 3.81 µM
MDA-MB-435
  GI50: 1.75 µM
  TGI: 4.77 µM
NCI-H226 lung
  GI50: 3.74 µM
  TGI: 16.8 µM
OVCAR-3 ovarian
  GI50: 2.21 µM
  TGI: 6.34 µM
SF-539 CNS
  GI50: 2.42 µM
  TGI: 6.86 µM
MALME-3M melanoma
  GI50: 1.77 µM
  TGI: 3.61 µM
SK-MEL-2 melanoma
  GI50: 2.08 µM
  TGI: 4.41 µM
OVCAR-8 ovarian
  GI50: 10.5 µM
  TGI: 37.9 µM
EKVX NSCLC
  GI50: 18.7 µM
  TGI: > 100 µM
MOLT-4 leukemia
  GI50: 9.72 µM
  TGI: 51.2 µM
SK-MEL-5 melanoma
  GI50: 5.9 µM
  TGI: 18.9 µM
MDA-MB-468 breast
  GI50: 1.85 µM
  TGI: 4.61 µM
M14 melanoma
  GI50: 2.61 µM
  TGI: 7.88 µM
786-0 renal
  GI50: 7.32 µM
  TGI: 24.9 µM
ACHN renal
  GI50: 19.3 µM
  TGI: 58.8 µM
HCT-116 colon
  GI50: 2.96 µM
  TGI: 11.5 µM

## COc1ccc(-c2cc(C(=O)N=Nc3c(O)[nH]c4ccc(Br)cc34)c3ccccc3n2)cc1
NCI-H460 lung
  GI50: 3.7 µM
  TGI: 16.1 µM
SF-295 CNS
  GI50: 13.7 µM
  TGI: 27.2 µM
SNB-19 CNS
  GI50: 15.5 µM
  TGI: 28.9 µM
HOP-92 NSCLC
  GI50: 13.3 µM
  TGI: 40.1 µM
UACC-257 melanoma
  GI50: 16.6 µM
  TGI: 37.7 µM
SN12C renal
  GI50: 14.9 µM
  TGI: 30.3 µM
IGROV1 ovarian
  GI50: 11.2 µM
  TGI: 25.9 µM
HCC-2998 colon
  GI50: 12.9 µM
  TGI: 26.4 µM
U251 CNS
  GI50: 3.4 µM
  TGI: > 100 µM
SF-268 CNS
  GI50: 17.9 µM
  TGI: 48.4 µM
A498 renal
  GI50: 20.8 µM
  TGI: 36.8 µM
UO-31 renal
  GI50: 12.5 µM
  TGI: 25 µM
COLO 205 colon
  GI50: 16.1 µM
  TGI: 47.5 µM
OVCAR-4 ovarian
  GI50: 17.1 µM
  TGI: 72.2 µM
RPMI-8226 leukemia
  GI50: 6.37 µM
  TGI: > 100 µM
KM12 colon
  GI50: 19 µM
  TGI: 85.7 µM
NCI/ADR-RES ovarian
  GI50: 8.75 µM
  TGI: 33.9 µM
BT-549 breast
  GI50: 27.8 µM
  TGI: 48.5 µM
NCI-H522 lung
  GI50: 16.9 µM
  TGI: 46.3 µM
MDA-MB-231 breast
  GI50: 6.94 µM
  TGI: 22.9 µM
T-47D breast
  GI50: 19.8 µM
  TGI: 65.8 µM
CCRF-CEM leukemia
  GI50: 3.09 µM
  TGI: > 100 µM
TK-10 renal
  GI50: 22 µM
  TGI: 41.2 µM
HT29 colon
  GI50: 3.62 µM
  TGI: 14.5 µM
CAKI-1 renal
  GI50: 13.9 µM
  TGI: 40.1 µM
HS 578T breast
  GI50: 14.3 µM
  TGI: 55.1 µM
SK-MEL-28 melanoma
  GI50: 14.5 µM
  TGI: 28.1 µM
PC-3 prostate
  GI50: 8.46 µM
  TGI: > 100 µM
A549 NSCLC
  GI50: 9.06 µM
  TGI: 51.6 µM
SW-620 colon
  GI50: 2.28 µM
  TGI: 6.83 µM
HCT-15 colon
  GI50: 3.23 µM
  TGI: 11.9 µM
K-562 leukemia
  GI50: 4.28 µM
  TGI: > 100 µM
NCI-H23 lung
  GI50: 3.09 µM
  TGI: 13.3 µM
SNB-75 CNS
  GI50: 14.1 µM
  TGI: 37.9 µM
UACC-62 melanoma
  GI50: 15.6 µM
  TGI: 30.2 µM
OVCAR-5 ovarian
  GI50: 14.3 µM
  TGI: 27.6 µM
SK-OV-3 ovarian
  GI50: 16.1 µM
  TGI: 34.8 µM
HOP-62 NSCLC
  GI50: 16.5 µM
  TGI: 36.7 µM
HL-60(TB) leukemia
  GI50: 24.7 µM
  TGI: > 100 µM
RXF 393 renal
  GI50: 10 µM
  TGI: 22.6 µM
DU-145 prostate
  GI50: 10.9 µM
  TGI: 30.1 µM
MCF7 breast
  GI50: 6.26 µM
  TGI: 26.5 µM
LOX IMVI melanoma
  GI50: 3.33 µM
  TGI: 12.3 µM
MDA-MB-435
  GI50: 13.3 µM
  TGI: 43.8 µM
NCI-H226 lung
  GI50: 14.2 µM
  TGI: 45.7 µM
OVCAR-3 ovarian
  GI50: 12.3 µM
  TGI: 36.1 µM
SF-539 CNS
  GI50: 15.6 µM
  TGI: 29.7 µM
MALME-3M melanoma
  GI50: 15.6 µM
  TGI: 34.9 µM
SK-MEL-2 melanoma
  GI50: 18.2 µM
  TGI: 33.9 µM
OVCAR-8 ovarian
  GI50: 12.3 µM
  TGI: 31.4 µM
EKVX NSCLC
  GI50: 10.5 µM
  TGI: 22.4 µM
MOLT-4 leukemia
  GI50: 5.08 µM
  TGI: > 100 µM
SK-MEL-5 melanoma
  GI50: 15.8 µM
  TGI: 31.8 µM
MDA-MB-468 breast
  GI50: 10.4 µM
  TGI: 25.3 µM
M14 melanoma
  GI50: 8.54 µM
  TGI: 44.4 µM
786-0 renal
  GI50: 19.4 µM
  TGI: 47.8 µM
ACHN renal
  GI50: 11.1 µM
  TGI: 24.1 µM
HCT-116 colon
  GI50: 5.55 µM
  TGI: 66.4 µM
